Assay results taken from patent US20070128217A1 (priority 2003, published 2007).

How the values were obtained:
[1] = tested on: antibodies in sera from SARS patients (sera 1a, 1b, 2, 6, 37, 62, London, SARS-yellow, SARS-green); assay type: binding, human; parameters: Binding of serum 6 to linear peptides of protein X1 of SARS-CoV Urbani / Binding of serum 37 to linear peptides of protein X1 of SARS-CoV Urbani / Binding of serum 6 to looped/cyclic peptide (PEPSCAN-ELISA) / Binding of serum 37 to looped/cyclic peptide (PEPSCAN-ELISA) / Binding of serum 37 to looped/cyclic peptides of protein X1 of SARS-CoV Urbani / Binding of serum 6 to linear peptides of protein X2 / Binding of serum 37 to linear peptides of protein X2 / Binding of serum 37 to looped/cyclic peptides of protein X2 of SARS-CoV Urbani / Binding of serum 6 to linear peptides of protein M of SARS-CoV Urbani / Binding of serum 37 to linear peptides of protein M of SARS-CoV Urbani / Binding of serum 6 to looped/cyclic peptides of protein M of SARS-CoV Urbani / Binding of serum 37 to looped/cyclic peptides of protein M of SARS-CoV Urbani / Binding of serum 6 to linear peptides of protein X3 of SARS-CoV Urbani / Binding of serum 37 to linear peptides of protein X3 of SARS-CoV Urbani / Binding of serum 37 to looped/cyclic peptides of protein X3 of SARS-CoV Urbani / Binding of serum 6 to linear peptides of protein X4 of SARS-CoV Urbani / Binding of serum 37 to linear peptides of protein X4 of SARS-CoV Urbani / Binding of serum 37 to looped/cyclic peptides of protein X4 of SARS-CoV Urbani / Binding of serum 6 to linear peptides of protein X5 of SARS-CoV Urbani / Binding of serum 37 to linear peptides of protein X5 of SARS-CoV Urbani / Binding of serum 37 to looped/cyclic peptides of protein X5 of SARS-CoV Urbani / Binding of serum 6 to linear peptides of protein N of SARS-CoV Urbani / Binding of serum 37 to linear peptides of protein N of SARS-CoV Urbani / Binding of serum 6 to linear peptide (PEPSCAN-ELISA) / Binding of serum 1a to looped/cyclic peptides of protein N of SARS-CoV Urbani / Binding of serum 1b to looped/cyclic peptides of protein N of SARS-CoV Urbani / Binding of serum 2 to looped/cyclic peptides of protein N of SARS-CoV Urbani / Binding of serum 6 to looped/cyclic peptides of protein N of SARS-CoV Urbani / Binding of serum 37 to looped/cyclic peptides of protein N of SARS-CoV Urbani / Binding of serum 62 to looped/cyclic peptides of protein N of SARS-CoV Urbani / Binding of serum London to looped/cyclic peptides of protein N of SARS-CoV Urbani / Binding of serum SARS-green to looped/cyclic peptides of protein N of SARS-CoV Urbani: unit not given here
[2] = tested on: control sera (pooled serum of ten healthy LUMC hospital workers; commercial negative donor pooled serum from the Dutch bloodbank); assay type: binding, human; parameters: Binding of Control serum LUMC to linear peptides / Binding of Control serum Blood-bank to linear peptides / Binding of Control serum LUMC to looped peptides / Binding of Control Serum Blood-Bank to Looped peptides / Binding of Control serum LUMC to linear peptides of the protein M of SARS-CoV Urbani / Binding of Control serum Blood-bank to linear peptides of the protein M of SARS-CoV Urbani / Binding of Control serum LUMC to looped peptides of the protein M of SARS-CoV Urbani / Binding of Control Serum Blood-Bank to Looped peptides of the protein M of SARS-CoV Urbani: unit not given here
[3] = tested on: rabbit serum obtained by immunizing a rabbit with the SARS-CoV strain Frankfurt 1; assay type: binding; parameters: Binding of a rabbit serum to linear peptides / Binding of a rabbit serum to looped peptides / Rabbit serum linear peptides / Rabbit serum looped peptides / Binding of a rabbit serum to linear peptides of protein N of SARS-CoV Urbani (Rabbit serum linear peptides) / Binding of a rabbit serum to looped/cyclic peptides of protein N of SARS-CoV Urbani (Rabbit serum looped peptides): unit not given here
[4] = tested on: recombinant human anti-SARS-CoV antibody 03-018; assay type: binding; parameters: Binding of antibody 03-018 to linear peptides of the N protein of SARS-CoV Urbani / Binding of antibody 03-018 to looped/cyclic peptides of the N protein of SARS-CoV Urbani: unit not given here

Row | Sequence | Binding of serum 1a to linear peptides of protein N of SARS-CoV Urbani [1] | Binding of serum 1a to looped/cyclic peptides of protein N of SARS-CoV Urbani [1] | Binding of serum 1b to linear peptides of protein N of SARS-CoV Urbani [1] | Binding of serum 1b to looped/cyclic peptides of protein N of SARS-CoV Urbani [1] | Binding of serum 2 to linear peptides of protein N of SARS-CoV Urbani [1] | Binding of serum 2 to looped/cyclic peptides of protein N of SARS-CoV Urbani [1] | Binding of serum 6 to linear peptides of protein N of SARS-CoV Urbani [1] | Binding of serum 6 to looped/cyclic peptides of protein N of SARS-CoV Urbani [1] | Binding of serum 37 to linear peptides of protein N of SARS-CoV Urbani [1] | Binding of serum 37 to looped/cyclic peptides of protein N of SARS-CoV Urbani [1] | Binding of serum 62 to linear peptides of protein N of SARS-CoV Urbani [1] | Binding of serum 62 to looped/cyclic peptides of protein N of SARS-CoV Urbani [1] | Binding of serum London to linear peptides of protein N of SARS-CoV Urbani [1] | Binding of serum London to looped/cyclic peptides of protein N of SARS-CoV Urbani [1] | Binding of serum SARS-green to linear peptides of protein N of SARS-CoV Urbani [1] | Binding of serum SARS-green to looped/cyclic peptides of protein N of SARS-CoV Urbani [1] | Binding of a rabbit serum to linear peptides of protein N of SARS-CoV Urbani (Rabbit serum linear peptides) [3] | Binding of a rabbit serum to looped/cyclic peptides of protein N of SARS-CoV Urbani (Rabbit serum looped peptides) [3] | Binding of antibody 03-018 to linear peptides of the N protein of SARS-CoV Urbani [4] | Binding of antibody 03-018 to looped/cyclic peptides of the N protein of SARS-CoV Urbani [4] | further results
1 | QRRPQGLPNNTASWF | 0.2 | 0.5 | 0.1 | 0.3 | 0.1 | 0.5 | 0.2 | 0.4 | 0.6 | 0.7 | 0.7 | 0.6 | 0.4 | 0.5 | 0.2 | 0.7 | 0.1 | 0.6 | 0.1 | 0.2 | Binding of serum SARS-yellow to linear peptides of protein N of SARS-CoV Urbani [1]: 0.7; Binding of serum SARS-yellow to looped/cyclic peptides of protein N of SARS-CoV Urbani [1]: 0.6; Binding of Control Serum Blood-Bank to Looped peptides [2]: 0.8; Binding of Control serum Blood-bank to linear peptides [2]: 0.7; Binding of Control serum LUMC to linear peptides [2]: 0.6; Binding of Control serum LUMC to looped peptides [2]: 0.9
2 | SSRSSSRSRGNSRNS |  | 0.3 |  | 0.3 |  | 0.4 |  | 0.3 |  | 0.5 |  | 0.6 |  | 0.5 |  | 0.3 | 0.2 | 0.7 | 0.1 | 0.2 | Binding of serum 1a to linear peptide (PEPSCAN-ELISA) [1]: 0.2; Binding of serum 1b to linear peptide (PEPSCAN-ELISA) [1]: 0.1; Binding of serum 2 to linear peptide (PEPSCAN-ELISA) [1]: 0.2; Binding of serum 6 to linear peptide (PEPSCAN-ELISA) [1]: 0.2; Binding of serum 37 to linear peptide (PEPSCAN-ELISA) [1]: 0.5; Binding of serum 62 to linear peptide (PEPSCAN-ELISA) [1]: 0.6; Binding of serum London to linear peptide (PEPSCAN-ELISA) [1]: 0.5; Binding of serum SARS-green to linear peptide (PEPSCAN-ELISA) [1]: 0.3; Binding of serum SARS-yellow to linear peptide (PEPSCAN-ELISA) [1]: 0.7; Binding of serum SARS-yellow to looped/cyclic peptides of protein N of SARS-CoV Urbani [1]: 0.4; Binding of Control Serum Blood-Bank to Looped peptides [2]: 0.7; Binding of Control serum Blood-bank to linear peptides [2]: 0.7; Binding of Control serum LUMC to linear peptides [2]: 0.7; Binding of Control serum LUMC to looped peptides [2]: 0.7
3 | FPRGQGVPINTNSGP | 0.2 | 0.3 | 0.1 | 0.2 | 0.3 | 0.4 | 0.2 | 0.2 | 0.7 | 0.5 | 0.6 | 0.4 | 0.5 | 0.4 | 0.3 | 0.4 | 0.2 | 0.2 | 0.1 | 0.2 | Binding of serum SARS-yellow to linear peptides of protein N of SARS-CoV Urbani [1]: 0.6; Binding of serum SARS-yellow to looped/cyclic peptides of protein N of SARS-CoV Urbani [1]: 0.4; Binding of Control Serum Blood-Bank to Looped peptides [2]: 0.6; Binding of Control serum Blood-bank to linear peptides [2]: 0.8; Binding of Control serum LUMC to linear peptides [2]: 0.7; Binding of Control serum LUMC to looped peptides [2]: 0.5
4 | RPKQRRPQGLPNNTA | 0.3 | 0.3 | 0.1 | 0.1 | 0.3 | 0.3 | 0.2 | 0.3 | 0.7 | 0.5 | 0.6 | 0.5 | 0.5 | 0.4 | 0.5 | 0.2 | 0.4 | 0.4 | 0.1 | 0.2 | Binding of serum SARS-yellow to linear peptides of protein N of SARS-CoV Urbani [1]: 0.7; Binding of serum SARS-yellow to looped/cyclic peptides of protein N of SARS-CoV Urbani [1]: 0.3; Binding of Control Serum Blood-Bank to Looped peptides [2]: 0.4; Binding of Control serum Blood-bank to linear peptides [2]: 0.8; Binding of Control serum LUMC to linear peptides [2]: 0.7; Binding of Control serum LUMC to looped peptides [2]: 0.5
5 | PLPQRQKKQPTVTLL | 0.2 |  | 0.1 |  | 0.2 |  | 0.2 |  | 0.5 |  | 0.6 |  | 1.0 |  | 0.2 |  | 0.1 | 0.7 | 0.1 | 0.3 | Binding of serum SARS-yellow to linear peptides of protein N of SARS-CoV Urbani [1]: 1.0; Recognition of the peptide by sera of SARS-CoV infected individuals, and form (linear, looped/cyclic) in which it is recognized [1]: recognized in looped/cyclic form; Control Serum Blood-Bank Looped peptides [2]: 1.1; Control serum Blood-bank linear peptides [2]: 0.7; Control serum LUMC linear peptides [2]: 0.5; Control serum LUMC looped peptides [2]: 1.1
